Experimental data taken from PubChem BioAssay (NCI).
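1) Cells in 96-well plates. 2) Compound, 48 h, 5 concentrations. 3) Linear interpolation between surrounding doses. 4) Unreached endpoint = highest concentration. Definition used: TGI = concentration required for complete inhibition of growth.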

These compounds were tested on SR leukemia (assay: growth of human tumour cells (NCI), 48 h).

| SMILES | TGI |
| --- | --- |
| CN(C)C1=Nc2ccccc2C(=S)N2CSCC12 (stereo not drawn) | 48 µM |
| O=C(c1ccccc1)c1c(-c2ccccc2)[nH]n(-c2ccc([N+](=O)[O-])cc2)c(=O)c1=O | > 100 µM |
| C/C(=N\Nc1cc(CN2CCCC2)c(-c2ccc(Cl)cc2)nn1)C(=O)O | > 100 µM |
| COc1cccc(CCn2c(N)c(-c3ccccc3)c3ccc([N+](=O)[O-])cc3c2=O)c1 | 31.6 µM |

The compounds below were run on HOP-62 NSCLC (assay: growth of human tumour cells (NCI), 48 h).

| SMILES | TGI |
| --- | --- |
| CCOC(=O)CC1CCN(C(=O)c2ccccc2)C2Cc3c([nH]c4ccccc34)C12C[N+](=O)[O-] (stereo not drawn) | > 100 µM |
| Nc1nc(Cl)cc(NCCO)n1 | > 100 µM |
| Clc1ccc(Cl)c(Nc2ccnc(SCc3ccccc3)n2)c1 | > 100 µM |
| CN(C)C1=Nc2ccccc2C(=S)N2CSCC12 (stereo not drawn) | > 100 µM |
| O=C(c1ccccc1)c1c(-c2ccccc2)[nH]n(-c2ccc([N+](=O)[O-])cc2)c(=O)c1=O | > 100 µM |
| C/C(=N\Nc1cc(CN2CCCC2)c(-c2ccc(Cl)cc2)nn1)C(=O)O | > 100 µM |
| COc1cccc(CCn2c(N)c(-c3ccccc3)c3ccc([N+](=O)[O-])cc3c2=O)c1 | 24.4 µM |

The compounds below were run on SK-OV-3 ovarian (assay: growth of human tumour cells (NCI), 48 h).

| SMILES | TGI |
| --- | --- |
| CCOC(=O)CC1CCN(C(=O)c2ccccc2)C2Cc3c([nH]c4ccccc34)C12C[N+](=O)[O-] (stereo not drawn) | > 100 µM |
| Nc1nc(Cl)cc(NCCO)n1 | > 100 µM |
| Clc1ccc(Cl)c(Nc2ccnc(SCc3ccccc3)n2)c1 | > 100 µM |
| CN(C)C1=Nc2ccccc2C(=S)N2CSCC12 (stereo not drawn) | > 100 µM |
| O=C(c1ccccc1)c1c(-c2ccccc2)[nH]n(-c2ccc([N+](=O)[O-])cc2)c(=O)c1=O | > 100 µM |
| C/C(=N\Nc1cc(CN2CCCC2)c(-c2ccc(Cl)cc2)nn1)C(=O)O | > 100 µM |
| COc1cccc(CCn2c(N)c(-c3ccccc3)c3ccc([N+](=O)[O-])cc3c2=O)c1 | 23.3 µM |

These compounds were tested on NCI/ADR-RES ovarian (assay: growth of human tumour cells (NCI), 48 h).

| SMILES | TGI |
| --- | --- |
| CCOC(=O)CC1CCN(C(=O)c2ccccc2)C2Cc3c([nH]c4ccccc34)C12C[N+](=O)[O-] (stereo not drawn) | > 100 µM |
| Nc1nc(Cl)cc(NCCO)n1 | > 100 µM |
| Clc1ccc(Cl)c(Nc2ccnc(SCc3ccccc3)n2)c1 | > 100 µM |
| CN(C)C1=Nc2ccccc2C(=S)N2CSCC12 (stereo not drawn) | > 100 µM |
| O=C(c1ccccc1)c1c(-c2ccccc2)[nH]n(-c2ccc([N+](=O)[O-])cc2)c(=O)c1=O | > 100 µM |
| C/C(=N\Nc1cc(CN2CCCC2)c(-c2ccc(Cl)cc2)nn1)C(=O)O | > 100 µM |
| COc1cccc(CCn2c(N)c(-c3ccccc3)c3ccc([N+](=O)[O-])cc3c2=O)c1 | 5.21 µM |

What follows are compounds tested on HCT-116 colon (assay: growth of human tumour cells (NCI), 48 h).

| SMILES | TGI |
| --- | --- |
| Nc1nc(Cl)cc(NCCO)n1 | > 100 µM |
| Clc1ccc(Cl)c(Nc2ccnc(SCc3ccccc3)n2)c1 | > 100 µM |
| CN(C)C1=Nc2ccccc2C(=S)N2CSCC12 (stereo not drawn) | > 100 µM |
| O=C(c1ccccc1)c1c(-c2ccccc2)[nH]n(-c2ccc([N+](=O)[O-])cc2)c(=O)c1=O | > 100 µM |
| C/C(=N\Nc1cc(CN2CCCC2)c(-c2ccc(Cl)cc2)nn1)C(=O)O | > 100 µM |
| COc1cccc(CCn2c(N)c(-c3ccccc3)c3ccc([N+](=O)[O-])cc3c2=O)c1 | 10 µM |

Each compound was assayed on MDA-MB-435 (assay: growth of human tumour cells (NCI), 48 h).

| SMILES | TGI |
| --- | --- |
| CCOC(=O)CC1CCN(C(=O)c2ccccc2)C2Cc3c([nH]c4ccccc34)C12C[N+](=O)[O-] (stereo not drawn) | > 100 µM |
| Nc1nc(Cl)cc(NCCO)n1 | > 100 µM |
| Clc1ccc(Cl)c(Nc2ccnc(SCc3ccccc3)n2)c1 | > 100 µM |
| CN(C)C1=Nc2ccccc2C(=S)N2CSCC12 (stereo not drawn) | > 100 µM |
| O=C(c1ccccc1)c1c(-c2ccccc2)[nH]n(-c2ccc([N+](=O)[O-])cc2)c(=O)c1=O | > 100 µM |
| C/C(=N\Nc1cc(CN2CCCC2)c(-c2ccc(Cl)cc2)nn1)C(=O)O | > 100 µM |
| COc1cccc(CCn2c(N)c(-c3ccccc3)c3ccc([N+](=O)[O-])cc3c2=O)c1 | > 67.1 µM |

These compounds were tested on 786-0 renal (assay: growth of human tumour cells (NCI), 48 h).

| SMILES | TGI |
| --- | --- |
| Nc1nc(Cl)cc(NCCO)n1 | > 100 µM |
| Clc1ccc(Cl)c(Nc2ccnc(SCc3ccccc3)n2)c1 | > 100 µM |
| CN(C)C1=Nc2ccccc2C(=S)N2CSCC12 (stereo not drawn) | 62.2 µM |
| O=C(c1ccccc1)c1c(-c2ccccc2)[nH]n(-c2ccc([N+](=O)[O-])cc2)c(=O)c1=O | > 100 µM |
| C/C(=N\Nc1cc(CN2CCCC2)c(-c2ccc(Cl)cc2)nn1)C(=O)O | > 100 µM |
| COc1cccc(CCn2c(N)c(-c3ccccc3)c3ccc([N+](=O)[O-])cc3c2=O)c1 | 19.4 µM |

These compounds were tested on LOX IMVI melanoma (assay: growth of human tumour cells (NCI), 48 h).

| SMILES | TGI |
| --- | --- |
| CCOC(=O)CC1CCN(C(=O)c2ccccc2)C2Cc3c([nH]c4ccccc34)C12C[N+](=O)[O-] (stereo not drawn) | > 100 µM |
| Nc1nc(Cl)cc(NCCO)n1 | > 100 µM |
| Clc1ccc(Cl)c(Nc2ccnc(SCc3ccccc3)n2)c1 | > 100 µM |
| CN(C)C1=Nc2ccccc2C(=S)N2CSCC12 (stereo not drawn) | > 100 µM |
| C/C(=N\Nc1cc(CN2CCCC2)c(-c2ccc(Cl)cc2)nn1)C(=O)O | > 100 µM |
| COc1cccc(CCn2c(N)c(-c3ccccc3)c3ccc([N+](=O)[O-])cc3c2=O)c1 | 6.53 µM |

What follows are compounds tested on TK-10 renal (assay: growth of human tumour cells (NCI), 48 h).

| SMILES | TGI |
| --- | --- |
| CCOC(=O)CC1CCN(C(=O)c2ccccc2)C2Cc3c([nH]c4ccccc34)C12C[N+](=O)[O-] (stereo not drawn) | > 100 µM |
| Nc1nc(Cl)cc(NCCO)n1 | > 100 µM |
| Clc1ccc(Cl)c(Nc2ccnc(SCc3ccccc3)n2)c1 | > 100 µM |
| CN(C)C1=Nc2ccccc2C(=S)N2CSCC12 (stereo not drawn) | > 100 µM |
| O=C(c1ccccc1)c1c(-c2ccccc2)[nH]n(-c2ccc([N+](=O)[O-])cc2)c(=O)c1=O | > 100 µM |
| C/C(=N\Nc1cc(CN2CCCC2)c(-c2ccc(Cl)cc2)nn1)C(=O)O | > 100 µM |
| COc1cccc(CCn2c(N)c(-c3ccccc3)c3ccc([N+](=O)[O-])cc3c2=O)c1 | 5.31 µM |

What follows are compounds tested on EKVX NSCLC (assay: growth of human tumour cells (NCI), 48 h).

| SMILES | TGI |
| --- | --- |
| CCOC(=O)CC1CCN(C(=O)c2ccccc2)C2Cc3c([nH]c4ccccc34)C12C[N+](=O)[O-] (stereo not drawn) | > 100 µM |
| Nc1nc(Cl)cc(NCCO)n1 | > 100 µM |
| Clc1ccc(Cl)c(Nc2ccnc(SCc3ccccc3)n2)c1 | > 100 µM |
| CN(C)C1=Nc2ccccc2C(=S)N2CSCC12 (stereo not drawn) | > 100 µM |
| O=C(c1ccccc1)c1c(-c2ccccc2)[nH]n(-c2ccc([N+](=O)[O-])cc2)c(=O)c1=O | > 100 µM |
| C/C(=N\Nc1cc(CN2CCCC2)c(-c2ccc(Cl)cc2)nn1)C(=O)O | > 100 µM |
| COc1cccc(CCn2c(N)c(-c3ccccc3)c3ccc([N+](=O)[O-])cc3c2=O)c1 | 24.8 µM |

What follows are compounds tested on SNB-19 CNS (assay: growth of human tumour cells (NCI), 48 h).

| SMILES | TGI |
| --- | --- |
| Nc1nc(Cl)cc(NCCO)n1 | > 100 µM |
| Clc1ccc(Cl)c(Nc2ccnc(SCc3ccccc3)n2)c1 | > 100 µM |
| CN(C)C1=Nc2ccccc2C(=S)N2CSCC12 (stereo not drawn) | > 100 µM |
| O=C(c1ccccc1)c1c(-c2ccccc2)[nH]n(-c2ccc([N+](=O)[O-])cc2)c(=O)c1=O | > 100 µM |
| C/C(=N\Nc1cc(CN2CCCC2)c(-c2ccc(Cl)cc2)nn1)C(=O)O | > 100 µM |
| COc1cccc(CCn2c(N)c(-c3ccccc3)c3ccc([N+](=O)[O-])cc3c2=O)c1 | 41 µM |

Each compound was assayed on SW-620 colon (assay: growth of human tumour cells (NCI), 48 h).

| SMILES | TGI |
| --- | --- |
| CCOC(=O)CC1CCN(C(=O)c2ccccc2)C2Cc3c([nH]c4ccccc34)C12C[N+](=O)[O-] (stereo not drawn) | > 100 µM |
| Nc1nc(Cl)cc(NCCO)n1 | > 100 µM |
| Clc1ccc(Cl)c(Nc2ccnc(SCc3ccccc3)n2)c1 | > 100 µM |
| CN(C)C1=Nc2ccccc2C(=S)N2CSCC12 (stereo not drawn) | > 100 µM |
| O=C(c1ccccc1)c1c(-c2ccccc2)[nH]n(-c2ccc([N+](=O)[O-])cc2)c(=O)c1=O | > 100 µM |
| C/C(=N\Nc1cc(CN2CCCC2)c(-c2ccc(Cl)cc2)nn1)C(=O)O | > 100 µM |
| COc1cccc(CCn2c(N)c(-c3ccccc3)c3ccc([N+](=O)[O-])cc3c2=O)c1 | > 85.6 µM |

Each compound was assayed on RPMI-8226 leukemia (assay: growth of human tumour cells (NCI), 48 h).

| SMILES | TGI |
| --- | --- |
| Nc1nc(Cl)cc(NCCO)n1 | > 100 µM |
| Clc1ccc(Cl)c(Nc2ccnc(SCc3ccccc3)n2)c1 | > 100 µM |
| CN(C)C1=Nc2ccccc2C(=S)N2CSCC12 (stereo not drawn) | > 100 µM |
| O=C(c1ccccc1)c1c(-c2ccccc2)[nH]n(-c2ccc([N+](=O)[O-])cc2)c(=O)c1=O | > 100 µM |
| C/C(=N\Nc1cc(CN2CCCC2)c(-c2ccc(Cl)cc2)nn1)C(=O)O | > 100 µM |
| COc1cccc(CCn2c(N)c(-c3ccccc3)c3ccc([N+](=O)[O-])cc3c2=O)c1 | 5 µM |

What follows are compounds tested on NCI-H23 lung (assay: growth of human tumour cells (NCI), 48 h).

| SMILES | TGI |
| --- | --- |
| CCOC(=O)CC1CCN(C(=O)c2ccccc2)C2Cc3c([nH]c4ccccc34)C12C[N+](=O)[O-] (stereo not drawn) | > 100 µM |
| Nc1nc(Cl)cc(NCCO)n1 | > 100 µM |
| Clc1ccc(Cl)c(Nc2ccnc(SCc3ccccc3)n2)c1 | > 100 µM |
| O=C(c1ccccc1)c1c(-c2ccccc2)[nH]n(-c2ccc([N+](=O)[O-])cc2)c(=O)c1=O | > 100 µM |
| C/C(=N\Nc1cc(CN2CCCC2)c(-c2ccc(Cl)cc2)nn1)C(=O)O | > 100 µM |
| COc1cccc(CCn2c(N)c(-c3ccccc3)c3ccc([N+](=O)[O-])cc3c2=O)c1 | 8.47 µM |

Each compound was assayed on SF-268 CNS (assay: growth of human tumour cells (NCI), 48 h).

| SMILES | TGI |
| --- | --- |
| CCOC(=O)CC1CCN(C(=O)c2ccccc2)C2Cc3c([nH]c4ccccc34)C12C[N+](=O)[O-] (stereo not drawn) | > 100 µM |
| Nc1nc(Cl)cc(NCCO)n1 | > 100 µM |
| Clc1ccc(Cl)c(Nc2ccnc(SCc3ccccc3)n2)c1 | > 100 µM |
| CN(C)C1=Nc2ccccc2C(=S)N2CSCC12 (stereo not drawn) | > 100 µM |
| O=C(c1ccccc1)c1c(-c2ccccc2)[nH]n(-c2ccc([N+](=O)[O-])cc2)c(=O)c1=O | > 100 µM |
| C/C(=N\Nc1cc(CN2CCCC2)c(-c2ccc(Cl)cc2)nn1)C(=O)O | > 100 µM |
| COc1cccc(CCn2c(N)c(-c3ccccc3)c3ccc([N+](=O)[O-])cc3c2=O)c1 | 53.7 µM |

What follows are compounds tested on CAKI-1 renal (assay: growth of human tumour cells (NCI), 48 h).

| SMILES | TGI |
| --- | --- |
| CCOC(=O)CC1CCN(C(=O)c2ccccc2)C2Cc3c([nH]c4ccccc34)C12C[N+](=O)[O-] (stereo not drawn) | > 100 µM |
| Nc1nc(Cl)cc(NCCO)n1 | > 100 µM |
